Experimental data reported in patent publication US20230106592A1, “METHOD FOR TREATING CANCER USING A COMBINATION OF DNA DAMAGING AGENTS AND ATR INHIBITORS” (Vertex Pharmaceuticals Incorporated, priority 2015, published 2023).

Legend:
[1] = system: PSN1 human pancreatic cancer xenografts; test: PSN1 xenograft, dose schedule in combination with gemcitabine; format: in vivo, Nude mice
pS345 Chk1 = test: pChk1 in paired tumor biopsies by immunohistochemistry; format: in vivo, human; settings: for Decreased Chk1 phosphorylation: paired tumor biopsy
Source text: In some embodiments, one or more biomarkers may be used to monitor or determine the efficacy of the treatment. In certain embodiments, the percentage of phosphorylated Chk1 (i.e., pChk1) in paired samples may be used as a biomarker; pChk1 is believed to correlate with the level of ATR activity. For instance, in some embodiments, the amount of pChk1 in the nuclei of cancer cells/mm^2 of a tumor biopsy may be used to determine the efficacy of monotherapy with an ATR inhibitor or combination therapy including an ATR inhibitor in a subject. In some such embodiments, a first tumor biopsy may be taken between about one to about three hours (e.g., two hours) before administration of the ATR inhibitor and a second tumor biopsy may be taken between about one to about three hours (e.g., two hours) after administration of the ATR inhibitor. The amount of pChk1 in the nuclei of cancer cells/mm^2 tumor in the first biopsy is set to be 100%, such that the amount of pChk1 in the nuclei of cancer cells/mm^2 tumor in the second biopsy is normalized by the amount in the first biopsy.
(§1) Pts with advanced solid tumors enrolled in 2 sequential parts.
As noted in Example 3, phosphorylated Chk1 was used as a biomarker in paired tumor biopsies of three subjects to determine the efficacy of the combination therapy. […] The amount of pChk1 in the nuclei of cancer cells/mm^2 tumor in the first biopsy was set to 100% and used to normalize the amount in the second biopsy.

[2] = Phase I trial, combination with gemcitabine: pharmacokinetics; format: in vivo, human; settings: combination with gem
Source text: Grade 3/4 treatment-related adverse events (AEs) occurred in 25 pts. DLTs occurred in 4 pts: 2 pts in DL4 (grade 3 thrombocytopenia; grade 3 elevated ALT and fatigue); 1 pt in DL5 (grade 3 elevated AST); 1 pt in DL6, (grade 3 elevated AST, ALT and grade 2 elevated ALP). The maximum tolerated dose was not reached but dose escalation was stopped at DL10 per investigator recommendation. […] The primary tumors in these four patients were breast cancer, head and neck cancer, NSCLC, and carcinoma of unknown primary origin. A pt with breast cancer in DL8 achieved PR at the 1st assessment and the pt remains on trial >133 days. Two (2) pts had prolonged stable disease (SD) responses. The tumor response and duration of progression free survival (PFS) are shown in FIGS. 16 and 17, respectively. For many patients, the duration of PFS extended beyond the 12-week primary endpoint. […] Progression-free survival (PFS) of 415 days in 1 patient with renal cancer(papillary carcinoma) and >191 days (pt with GIST) were observed.

PSN1 cancer cells = test: In vitro dose schedule with gemcitabine, MTS cell viability, Bliss synergy analysis; format: cell-based, human
Experimental: Cell viability was measured by MTS assay at 96 hours and the data subjected to a statistical Bliss analysis using MacSynergy II software to quantitate synergy as a log volume.
Cell viability was measured by MTS assay (96 hours) and the data subjected to a statistical Bliss analysis. Compound A-2 synergized with gemcitabine when administered at the start of gemcitabine treatment. […] The strong schedule dependence is attributed to an accumulation of cells in S phase, and concomitant increase in ATR activity (measured by P-Chk1) that occurs in response to gemcitabine treatment alone.

advanced solid tumors = test: Phase I trial, combination with carboplatin: RECIST response and PFS; format: in vivo, human
Experimental: as §1
In part A, single pt cohorts received a compound of Formula A-2 once weekly in 21-day cycles with 3+3 dose escalation cohorts being implemented if grade 2 drug-related adverse events (AEs) occurred. […] If a DLT was reported, the cohort was expanded to include 3 additional pts with subsequent dose escalation being permitted if no further DLTs occurred. Paired pre- and post-treatment biopsies from selected pts in part B were assessed for pCHK1 levels by immunohistochemistry. Models based on preclinical and clinical data were used to simulate hematologic toxicities and pCHK1 inhibition for pts treated with a compound of Formula A-2 and CP.

With `CNCc1ccc(-c2cc(-c3nc(-c4ccc(S(=O)(=O)C(C)C)cc4)cnc3N)on2)cc1` [Compound A-2] the “Efficacy (tumor volume)” value ([1]; Compound A-2 20 mg/kg every 6 days, dosed 12 to 24 hours after gemcitabine 15 mg/kg every 3 days) was “most effective”, the “Benefit over gemcitabine treatment” value ([1]; Compound A-2 dosed before gemcitabine, or 48 hours after gemcitabine) was “limited benefit” and the “Efficacy (tumor volume)” value ([1]; Compound A-2 dosed within 12 hours or beyond 24 hours of gemcitabine administration) was “reduced efficacy”. The Body weight loss ([1]; addition of Compound A-2 to gemcitabine compared with gemcitabine only) was “did not lead to increased body weight loss”, the “Decreased Chk1 phosphorylation” value (pS345 Chk1; DL2 (120 mg/m^2 + CP AUC 5)) was 94% and the “Decreased Chk1 phosphorylation” value (pS345 Chk1; DL4 (90 mg/m^2 + CP AUC 5)) was 74%. The “Decrease in pChk1 in nuclei of cancer cells/mm^2 tumor” value (pS345 Chk1; subject 1: carboplatin target AUC 5 mg/mL·min + 120 mg/m^2 Compound A-2, biopsy 2 hours before and after) was 94%, the “Decrease in pChk1 in nuclei of cancer cells/mm^2 tumor” value (pS345 Chk1; subjects 2 and 3: carboplatin target AUC 5 mg/mL·min + 90 mg/m^2 Compound A-2) was 73% and the half-life ([2]; both sexes, human, in vivo, intravenous, across DLs, read-out: Terminal elimination half-life (converted)) was roughly 16 h. The “Exposure based on Cmax and AUC0-∞” value [2] was “relatively linear”, the “Synergy with gemcitabine (Bliss analysis of cell viability)” value (“Synergy with gemcitabine” for short) (PSN1 cancer cells; Compound A-2 2 hour exposure at the start of 24 hour gemcitabine treatment, MTS at 96 hours) was “synergized” and the “Synergy with gemcitabine” value (PSN1 cancer cells; Compound A-2 administered 24 hours after starting gemcitabine treatment) was “maximal”. The “Synergy with gemcitabine” value (PSN1 cancer cells; Compound A-2 administered 48 hours or later after gemcitabine treatment was started) was “No synergy”, the “PFS (progression-free survival)” value (advanced solid tumors; Subject 1, Ovarian, Compound A-2 120 mg/m^2 + carboplatin AUC 5 mg/mL·min) was 175 days and the “PFS (progression-free survival)” value (advanced solid tumors; Subject 2, Ovarian, Compound A-2 90 mg/m^2 + carboplatin AUC 5 mg/mL·min) was 176 days. The “PFS (progression-free survival)” value (advanced solid tumors; Subject 3, Breast, Compound A-2 90 mg/m^2 + carboplatin AUC 5 mg/mL·min) was 67 days, the Best response (advanced solid tumors; part B with CP (n=1)) was “partial response” and the RECIST response (advanced solid tumors; platinum and antimetabolite refractory high grade serous ovarian cancer subject, carboplatin AUC 5 day 1, Compound A-2 90 mg/m^2 days 2 and 9) was “partial response”. The “Duration of RECIST partial response” value (advanced solid tumors; refractory ovarian cancer subject, carboplatin AUC 5 + Compound A-2 90 mg/m^2, ongoing) was “more than 6 months”.
